Experiment [1] concerns the target T1, panel of 203 kinases (Homo sapiens, UniProt O94804).
T1 construct: purchased DiscoverX (KINOMEscan)
Kind of experiment: KINOMEscan competitive binding, whole panel. As to conditions: 10 µM, n=1; kinase LOK; read-out: Percent inhibition LOK. The procedure, abridged:
(§1)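 Kinases were expressed as T7 bacteriophage fusions, and test compounds competed with immobilized ATP-site probe ligands for binding. Kinase remaining bound to the solid-support probe was quantified, and values are given as percentage inhibition.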

The target of experiment [2] is T2, panel of 203 kinases (Homo sapiens, UniProt P21802).
T2 construct: purchased DiscoverX (KINOMEscan)
The experiment is described as follows: KINOMEscan competitive binding, whole panel. As to conditions: 10 µM, n=1; kinase FGFR2; read-out: Percent inhibition FGFR2. The procedure, abridged: as §1

For experiment [3], the target named is T3, panel of 203 kinases (Homo sapiens, UniProt P28482).
T3 construct: purchased DiscoverX (KINOMEscan)
Kind of experiment: KINOMEscan competitive binding, whole panel. The note with it: 10 µM, n=1; kinase ERK2; read-out: Percent inhibition ERK2. The essentials:
as §1

Experiment [4] addresses T4, panel of 203 kinases (Homo sapiens, UniProt P42684).
T4 construct: purchased DiscoverX (KINOMEscan)
The experiment is described as follows: KINOMEscan competitive binding, whole panel. The note with it: 10 µM, n=1; kinase ABL2; read-out: Percent inhibition ABL2. The procedure, abridged: as §1

Experiment [5] has as its target T5, panel of 203 kinases (Homo sapiens, UniProt P42685).
T5 construct: purchased DiscoverX (KINOMEscan)
The experiment is described as follows: KINOMEscan competitive binding, whole panel. The note with it: 10 µM, n=1; kinase FRK; read-out: Percent inhibition FRK. The essentials: as §1

Experiment [6] addresses T6, panel of 203 kinases (Homo sapiens, UniProt P45983).
T6 construct: purchased DiscoverX (KINOMEscan)
The experiment is described as follows: KINOMEscan competitive binding, whole panel. As to conditions: 10 µM, n=1; kinase JNK1; read-out: Percent inhibition JNK1. The essentials:
as §1

For experiment [7], the target named is T7, panel of 203 kinases (Homo sapiens, UniProt P45984).
T7 construct: purchased DiscoverX (KINOMEscan)
Kind of experiment: KINOMEscan competitive binding, whole panel. The note with it: 10 µM, n=1; kinase JNK2; read-out: Percent inhibition JNK2. The procedure, abridged:
as §1

Experiment [8] has as its target T8, panel of 203 kinases (Homo sapiens, UniProt P54646).
T8 construct: purchased DiscoverX (KINOMEscan)
Kind of experiment: KINOMEscan competitive binding, whole panel. As to conditions: 10 µM, n=1; kinase AMPK-alpha2; read-out: Percent inhibition AMPK-alpha2. The procedure, abridged: as §1

Experiment [9] deals with T9, panel of 203 kinases (Homo sapiens, UniProt Q9P0L2).
T9 construct: purchased DiscoverX (KINOMEscan)
Kind of experiment: KINOMEscan competitive binding, whole panel. As to conditions: 10 µM, n=1; kinase MARK1; read-out: Percent inhibition MARK1. The essentials: as §1

Experiment [10] deals with T10, panel of 203 kinases (Homo sapiens, UniProt Q9Y6E0).
T10 construct: purchased DiscoverX (KINOMEscan)
The experiment is described as follows: KINOMEscan competitive binding, whole panel. As to conditions: 10 µM, n=1; kinase MST3; read-out: Percent inhibition MST3. The essentials:
as §1

The target of experiment [11] is T11, PKAC-beta (Homo sapiens, UniProt P22694).
T11 construct: purchased DiscoverX (KINOMEscan)
The experiment is described as follows: KINOMEscan competitive binding. As to conditions: n=1, read-out: Percent inhibition, PKAC-beta.

Experiment [12] addresses T12, RET (Homo sapiens, UniProt P07949).
T12 construct: purchased DiscoverX (KINOMEscan)
The experiment is described as follows: KINOMEscan competitive binding. The note with it: n=1, read-out: Percent inhibition, RET.

Experiment [13] has as its target T13, TIE2 (Homo sapiens, UniProt Q02763).
T13 construct: purchased DiscoverX (KINOMEscan)
The experiment is described as follows: KINOMEscan competitive binding. The note with it: n=1, read-out: Percent inhibition, TIE2.

Experiment [14] has as its target T14, TNIK (Homo sapiens, UniProt Q9UKE5).
T14 construct: purchased DiscoverX (KINOMEscan)
Kind of experiment: KINOMEscan competitive binding. The note with it: n=1, read-out: Percent inhibition, TNIK.

Experiment [15] deals with T15, TYK2(Kin.Dom.2) (Homo sapiens, UniProt P29597).
T15 construct: TYK2(Kin.Dom.2); purchased DiscoverX (KINOMEscan)
T15 sequence (P29597 889-1187 limits assumed): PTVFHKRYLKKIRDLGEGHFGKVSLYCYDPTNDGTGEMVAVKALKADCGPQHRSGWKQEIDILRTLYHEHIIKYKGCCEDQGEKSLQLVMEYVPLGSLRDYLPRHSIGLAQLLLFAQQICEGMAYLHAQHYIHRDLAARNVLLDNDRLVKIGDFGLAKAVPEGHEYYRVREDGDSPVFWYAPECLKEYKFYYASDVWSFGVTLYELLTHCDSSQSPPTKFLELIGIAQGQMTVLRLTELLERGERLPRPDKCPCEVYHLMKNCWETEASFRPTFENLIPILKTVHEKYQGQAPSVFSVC
The experiment is described as follows: KINOMEscan competitive binding. The note with it: n=1, read-out: Percent inhibition, TYK2(Kin.Dom.2).

In experiment [16] the target is T16, YSK1 (Homo sapiens, UniProt O00506).
T16 construct: purchased DiscoverX (KINOMEscan)
Kind of experiment: KINOMEscan competitive binding. The note with it: n=1, read-out: Percent inhibition, YSK1.

In experiment [17] the target is T17, panel of 203 kinases (Homo sapiens, UniProt P51813).
T17 construct: purchased DiscoverX (KINOMEscan)
T17 sequence (P51813 1-675): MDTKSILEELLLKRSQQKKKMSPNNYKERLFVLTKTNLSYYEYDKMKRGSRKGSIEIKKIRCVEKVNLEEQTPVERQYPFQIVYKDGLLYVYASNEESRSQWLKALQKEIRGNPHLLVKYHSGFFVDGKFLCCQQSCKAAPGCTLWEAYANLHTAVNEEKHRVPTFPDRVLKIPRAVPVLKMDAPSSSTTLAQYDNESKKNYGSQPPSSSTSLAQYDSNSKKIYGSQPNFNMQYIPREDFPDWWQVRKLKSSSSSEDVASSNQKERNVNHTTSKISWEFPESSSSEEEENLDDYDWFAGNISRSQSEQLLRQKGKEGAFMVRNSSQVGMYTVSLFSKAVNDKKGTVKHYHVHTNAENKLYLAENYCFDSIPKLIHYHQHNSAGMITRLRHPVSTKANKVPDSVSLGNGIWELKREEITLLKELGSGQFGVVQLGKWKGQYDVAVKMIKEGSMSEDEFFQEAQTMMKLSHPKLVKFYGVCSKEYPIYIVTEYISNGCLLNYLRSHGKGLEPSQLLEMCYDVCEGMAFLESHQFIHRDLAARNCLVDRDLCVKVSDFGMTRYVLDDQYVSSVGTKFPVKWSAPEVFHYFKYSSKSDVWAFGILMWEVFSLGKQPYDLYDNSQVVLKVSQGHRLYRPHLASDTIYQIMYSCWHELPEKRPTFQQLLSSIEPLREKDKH
The experiment is described as follows: KINOMEscan competitive binding, whole panel. As to conditions: 10 µM, n=1; kinase BMX; read-out: Percent inhibition BMX. The essentials:
as §1

Seven compounds from PMC9927415, “Tyrosine Kinase Inhibitors Display Potent Activity against Cryptosporidium parvum” (Microbiology Spectrum, 2022) can be followed below.

T1 sequence (O94804 whole entry): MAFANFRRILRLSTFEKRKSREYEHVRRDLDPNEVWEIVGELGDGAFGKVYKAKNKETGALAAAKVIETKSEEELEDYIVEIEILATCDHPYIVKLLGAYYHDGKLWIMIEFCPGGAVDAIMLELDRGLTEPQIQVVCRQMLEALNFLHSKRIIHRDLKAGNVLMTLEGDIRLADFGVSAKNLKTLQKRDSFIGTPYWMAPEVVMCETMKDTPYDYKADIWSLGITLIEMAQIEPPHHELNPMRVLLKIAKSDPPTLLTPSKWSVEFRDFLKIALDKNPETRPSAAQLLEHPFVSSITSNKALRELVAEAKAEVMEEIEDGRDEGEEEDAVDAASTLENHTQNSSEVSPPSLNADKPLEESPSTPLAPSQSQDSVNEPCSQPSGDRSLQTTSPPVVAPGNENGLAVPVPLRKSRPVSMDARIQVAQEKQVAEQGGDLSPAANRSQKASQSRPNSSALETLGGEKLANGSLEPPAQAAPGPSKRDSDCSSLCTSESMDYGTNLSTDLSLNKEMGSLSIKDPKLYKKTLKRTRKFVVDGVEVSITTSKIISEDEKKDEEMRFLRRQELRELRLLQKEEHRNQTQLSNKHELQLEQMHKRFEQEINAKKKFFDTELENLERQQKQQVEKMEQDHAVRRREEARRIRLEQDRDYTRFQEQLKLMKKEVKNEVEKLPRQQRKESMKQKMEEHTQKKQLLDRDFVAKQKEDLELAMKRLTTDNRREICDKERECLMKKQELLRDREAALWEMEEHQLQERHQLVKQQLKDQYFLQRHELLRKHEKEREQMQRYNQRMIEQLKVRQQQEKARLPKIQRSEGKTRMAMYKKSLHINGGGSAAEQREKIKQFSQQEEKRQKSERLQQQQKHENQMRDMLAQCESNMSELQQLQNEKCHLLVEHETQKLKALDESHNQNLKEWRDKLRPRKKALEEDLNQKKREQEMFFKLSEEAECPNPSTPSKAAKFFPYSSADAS
T6 sequence (P45983 whole entry): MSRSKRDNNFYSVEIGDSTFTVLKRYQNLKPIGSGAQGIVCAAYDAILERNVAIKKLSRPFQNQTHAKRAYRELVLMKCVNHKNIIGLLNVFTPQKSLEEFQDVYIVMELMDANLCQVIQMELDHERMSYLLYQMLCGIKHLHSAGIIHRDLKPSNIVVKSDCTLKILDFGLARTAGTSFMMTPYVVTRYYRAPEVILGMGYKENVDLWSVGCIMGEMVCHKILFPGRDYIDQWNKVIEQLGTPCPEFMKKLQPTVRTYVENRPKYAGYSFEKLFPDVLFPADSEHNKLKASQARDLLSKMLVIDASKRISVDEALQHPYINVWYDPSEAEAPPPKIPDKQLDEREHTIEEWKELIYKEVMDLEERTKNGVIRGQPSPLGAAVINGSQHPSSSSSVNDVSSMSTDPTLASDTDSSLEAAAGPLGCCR
T16 sequence (O00506 whole entry): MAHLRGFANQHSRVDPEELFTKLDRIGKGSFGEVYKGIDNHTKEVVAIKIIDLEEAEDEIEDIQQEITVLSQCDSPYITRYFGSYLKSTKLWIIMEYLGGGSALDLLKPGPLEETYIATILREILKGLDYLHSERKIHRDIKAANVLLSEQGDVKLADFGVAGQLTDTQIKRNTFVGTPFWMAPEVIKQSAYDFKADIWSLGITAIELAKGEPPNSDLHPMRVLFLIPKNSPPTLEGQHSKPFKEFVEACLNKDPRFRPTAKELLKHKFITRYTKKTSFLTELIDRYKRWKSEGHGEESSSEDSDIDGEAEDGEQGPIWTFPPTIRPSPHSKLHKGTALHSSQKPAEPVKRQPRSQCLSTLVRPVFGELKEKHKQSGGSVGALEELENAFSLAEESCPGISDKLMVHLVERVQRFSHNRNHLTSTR
T5 sequence (P42685 whole entry): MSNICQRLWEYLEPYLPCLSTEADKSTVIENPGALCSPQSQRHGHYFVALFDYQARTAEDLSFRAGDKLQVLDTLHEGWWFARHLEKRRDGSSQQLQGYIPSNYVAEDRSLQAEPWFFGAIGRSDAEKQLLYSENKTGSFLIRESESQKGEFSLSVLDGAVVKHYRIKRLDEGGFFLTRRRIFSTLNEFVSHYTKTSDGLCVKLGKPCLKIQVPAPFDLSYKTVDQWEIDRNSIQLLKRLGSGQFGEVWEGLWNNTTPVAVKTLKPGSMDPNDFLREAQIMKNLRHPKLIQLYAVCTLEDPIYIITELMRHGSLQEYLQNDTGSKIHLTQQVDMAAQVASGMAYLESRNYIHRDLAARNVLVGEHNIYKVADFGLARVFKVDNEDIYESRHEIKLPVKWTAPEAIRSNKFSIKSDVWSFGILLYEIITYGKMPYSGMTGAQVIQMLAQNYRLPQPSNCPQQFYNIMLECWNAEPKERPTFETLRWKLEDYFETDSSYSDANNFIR
T4 sequence (P42684 whole entry): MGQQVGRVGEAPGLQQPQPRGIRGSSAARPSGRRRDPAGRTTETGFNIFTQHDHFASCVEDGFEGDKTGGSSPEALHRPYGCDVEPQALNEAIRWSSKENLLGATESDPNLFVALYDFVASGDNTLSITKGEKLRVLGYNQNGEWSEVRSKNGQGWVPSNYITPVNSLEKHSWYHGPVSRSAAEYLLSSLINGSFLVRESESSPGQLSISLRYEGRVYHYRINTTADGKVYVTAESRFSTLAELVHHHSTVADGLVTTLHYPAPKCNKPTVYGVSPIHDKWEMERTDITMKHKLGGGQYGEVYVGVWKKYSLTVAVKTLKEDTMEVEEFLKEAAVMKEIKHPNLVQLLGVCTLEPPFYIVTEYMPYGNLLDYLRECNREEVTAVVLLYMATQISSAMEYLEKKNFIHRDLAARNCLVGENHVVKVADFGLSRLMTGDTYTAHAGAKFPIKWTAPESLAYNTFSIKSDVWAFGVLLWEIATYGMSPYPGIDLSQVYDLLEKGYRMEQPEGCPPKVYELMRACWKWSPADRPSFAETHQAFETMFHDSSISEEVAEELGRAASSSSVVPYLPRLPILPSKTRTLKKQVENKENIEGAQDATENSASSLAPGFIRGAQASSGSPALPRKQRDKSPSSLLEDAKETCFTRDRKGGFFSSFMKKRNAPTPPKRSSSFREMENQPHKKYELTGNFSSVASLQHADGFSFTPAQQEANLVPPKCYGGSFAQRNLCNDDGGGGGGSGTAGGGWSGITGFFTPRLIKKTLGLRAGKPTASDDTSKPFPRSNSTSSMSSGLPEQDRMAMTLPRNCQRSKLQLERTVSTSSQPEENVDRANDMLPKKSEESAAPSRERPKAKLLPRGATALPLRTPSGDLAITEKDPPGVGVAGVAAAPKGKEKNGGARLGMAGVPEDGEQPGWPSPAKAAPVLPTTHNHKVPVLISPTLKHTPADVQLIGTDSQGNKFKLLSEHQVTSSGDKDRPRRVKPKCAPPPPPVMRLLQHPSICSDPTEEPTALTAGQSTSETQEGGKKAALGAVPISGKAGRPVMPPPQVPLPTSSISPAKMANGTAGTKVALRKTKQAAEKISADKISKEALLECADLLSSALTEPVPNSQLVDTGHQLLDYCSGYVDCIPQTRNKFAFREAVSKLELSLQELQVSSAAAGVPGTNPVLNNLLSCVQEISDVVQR
T14 sequence (Q9UKE5 whole entry): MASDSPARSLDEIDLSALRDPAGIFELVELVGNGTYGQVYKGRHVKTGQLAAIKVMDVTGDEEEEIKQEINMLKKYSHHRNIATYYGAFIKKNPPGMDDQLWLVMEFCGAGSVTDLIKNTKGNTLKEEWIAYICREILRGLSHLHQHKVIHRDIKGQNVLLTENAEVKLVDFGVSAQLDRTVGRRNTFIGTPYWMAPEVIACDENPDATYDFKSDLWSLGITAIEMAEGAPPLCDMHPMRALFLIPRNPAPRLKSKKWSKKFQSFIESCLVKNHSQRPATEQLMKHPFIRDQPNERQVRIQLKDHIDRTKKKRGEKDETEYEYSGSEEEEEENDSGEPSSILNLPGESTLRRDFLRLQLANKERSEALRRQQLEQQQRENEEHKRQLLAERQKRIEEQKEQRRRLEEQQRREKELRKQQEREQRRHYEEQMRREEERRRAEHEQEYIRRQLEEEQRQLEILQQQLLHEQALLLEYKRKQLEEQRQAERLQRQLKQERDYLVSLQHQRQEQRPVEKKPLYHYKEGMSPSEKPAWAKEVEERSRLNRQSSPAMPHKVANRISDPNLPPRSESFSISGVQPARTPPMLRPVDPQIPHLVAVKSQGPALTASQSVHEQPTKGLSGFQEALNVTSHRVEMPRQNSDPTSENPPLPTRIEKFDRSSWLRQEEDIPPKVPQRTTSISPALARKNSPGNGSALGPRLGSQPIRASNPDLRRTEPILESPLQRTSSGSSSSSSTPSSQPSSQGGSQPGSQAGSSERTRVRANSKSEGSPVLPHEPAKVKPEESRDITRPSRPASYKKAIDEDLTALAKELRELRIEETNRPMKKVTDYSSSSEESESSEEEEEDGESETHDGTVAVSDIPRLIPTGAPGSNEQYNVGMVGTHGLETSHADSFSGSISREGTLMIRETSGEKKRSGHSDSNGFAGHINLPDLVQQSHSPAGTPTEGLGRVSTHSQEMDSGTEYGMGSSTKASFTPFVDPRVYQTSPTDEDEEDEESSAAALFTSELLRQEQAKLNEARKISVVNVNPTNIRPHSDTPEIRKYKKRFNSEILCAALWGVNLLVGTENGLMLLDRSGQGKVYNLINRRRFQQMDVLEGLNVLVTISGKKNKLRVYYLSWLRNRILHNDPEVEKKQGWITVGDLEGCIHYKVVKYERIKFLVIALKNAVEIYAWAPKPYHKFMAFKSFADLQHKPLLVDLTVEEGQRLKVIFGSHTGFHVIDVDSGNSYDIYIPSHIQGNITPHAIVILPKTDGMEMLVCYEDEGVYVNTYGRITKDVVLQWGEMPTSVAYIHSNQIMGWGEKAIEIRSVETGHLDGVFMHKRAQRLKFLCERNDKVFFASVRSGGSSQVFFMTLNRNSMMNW

What is called inhibition is the relative decrease from the control value, in per cent. For the compound `Cc1ccc(O)cc1Nc1ccnc(Nc2cccc(C(N)=O)c2)n1` [Compound 3], the inhibition at 10 µM in experiment [1] was determined as 82.6%; in [2] it was 0%; in experiment [3] it was 0%; in experiment [4], 100%; in [5] it was 99.6%; in experiment [6], 76.7%. Further, the inhibition at 10 µM in experiment [7] stood at 0%; in experiment [8], 0%; in experiment [9], 0%; in [10] it was 0%; in experiment [11], 0%; in [12], 100%. Also, the inhibition at 10 µM worked out at 97.5% in experiment [13], 99.3% in experiment [14], 94% in experiment [15] and 0% in experiment [16].

As to `Clc1ccc(Nc2ncc(-c3ccccc3)s2)cc1` [Compound 10], the inhibition at 10 µM in [1], in experiment [2], in [3], in [4], in [5] and in experiment [6] was 0% each time. The inhibition at 10 µM in experiment [7], in experiment [17], in experiment [8], in experiment [9], in experiment [10] and in experiment [11] was 0% throughout. Further, the inhibition at 10 µM in [12], in experiment [13], in [14], in [15] and in [16] was 0% each time.

As to `c1ccc(COc2cccc(-c3ccnc4[nH]ccc34)c2)cc1` [Compound 9], the inhibition at 10 µM in [1], in [2], in experiment [3], in [4], in experiment [5] and in experiment [6] was 0% in each case. The inhibition at 10 µM in experiment [7], in [17], in experiment [8], in experiment [9], in experiment [10] and in [11] was 0% each time. Also, the inhibition at 10 µM in experiment [12], in experiment [13], in experiment [14], in [15] and in experiment [16] was 0% in each case.

As for `Fc1cccc(COc2ccc(Nc3ncnc4c3CN(CCN3CCOCC3)CC4)cc2Cl)c1` [Compound 6], the inhibition at 10 µM in [1], in [2], in experiment [3], in experiment [4], in experiment [5] and in [6] was 0% in each case. Further, the inhibition at 10 µM in experiment [7], in [17], in [8], in [9], in experiment [10] and in experiment [11] was 0% each time. Besides, the inhibition at 10 µM in experiment [12], in [13], in experiment [14], in experiment [15] and in experiment [16] was 0% each time.

On to `C[C@@H](Oc1cc(-c2cnc3ccccn23)sc1C(N)=O)c1ccccc1Cl` [Compound 8], for which the inhibition at 10 µM in [1] came to 100%; in [2] it was 0%; in experiment [3] it was 80.6%; in [4] it was 0%; in experiment [5], 0%; in experiment [6] it was 0%. Further, the inhibition at 10 µM in experiment [7], in [17], in experiment [8], in experiment [9], in experiment [10] and in [11] was 0% throughout. Moreover, the inhibition at 10 µM in experiment [12], in experiment [13], in experiment [14], in [15] and in experiment [16] was 0% in each case.

For `CN1CCN(c2ccc(Nc3nccc(-c4cnn5ncccc45)n3)cc2C#N)CC1` [Compound 1], the inhibition at 10 µM in experiment [1] is 88.7%; in [2], 70.1%; in experiment [3], 100%; in [4], 95%; in experiment [5], 91.8%; in experiment [6], 100%. In addition, the inhibition at 10 µM in [7] came out at 96.5%; in experiment [17], 0%; in experiment [8], 81.8%; in experiment [9], 85.3%; in experiment [10], 99.4%; in [11], 0%. For the same compound, the inhibition at 10 µM was found to be 89.8% in [12]; 0% in [13]; 98.9% in [14]; 88.2% in experiment [15]; 90.8% in experiment [16].

Take `Cc1ccc(O)cc1N(C)c1ccnc(Nc2cccc(S(N)(=O)=O)c2)n1` [Compound 4]: the inhibition at 10 µM amounted to 99.6% in experiment [1]; 0% in experiment [2]; 64% in experiment [3]; 100% in [4]; 99.5% in experiment [5]; 87.1% in [6]. For the same compound, the inhibition at 10 µM in [7] amounted to 71.3%; in experiment [17], 100%; in [8] it was 0%; in [9], 0%; in experiment [10] it was 0%; in experiment [11], 77.8%. Moreover, the inhibition at 10 µM in experiment [12] came to 100%; in [13] it was 100%; in experiment [14], 99.6%; in experiment [15], 95.6%; in experiment [16], 0%.
